This is an account of results in patent publication US20050192279A1, “Pyridazinones as antagonists of alpha4 integrins” (priority 2004, published 2005).

Molecules are shown by their SMILES.

One assay has as its system eosinophil peroxidase levels in ear punches. Nature of the assay: PMA-Induced Inflammation in Mouse Ear Skin and Measurement of Eosinophil Peroxidase. The assay is classed as in vivo, BALB/C mice. The conditions noted are these: total dose 40 mg/kg po bid; ear punches 24 h after PMA. Here is the method:
Phorbol 12-Myristate 13-Acetate (PMA)-Induced Inflammation in Mouse Ear Skin and Measurement of Eosinophil Peroxidase
Phorbol 12-myristate 13-acetate (PMA) when applied to skin, generates a vigorous recruitment of immune cells to the site of application. Over a 24 hour period, there is accumulation of fluid and cells to the inflamed site, and thus is a general indicator of an inflammatory response. Among the recruited cells are eosinophils and neutrophils. Eosinophils can migrate into an inflamed or infected tissue via alpha 4 beta 1 integrin interactions with vascular cell adesion molecule-1 (VCAM-1) counter-receptors on vascular endothelial cells, and via alpha 4 beta 7 integrin to mucosal addressin cellular adhesion molecule on vascular endothelial cells in the gastrointestinal tract and mesenteric system. The recruited esoinophils can be quantified by measuring the presence of eosinophil peroxidase in a sample of the homogenized tissue.
Female BALB/C mice are ordered at 6 weeks of age and 16-18 grams from Charles River were used between 6-10 weeks of age. The animals were randomly assigned to groups of 10 (5/box) and housed in groups in plastic cages in a room with 12 h light-dark cycle and controlled temperature and humidity. They received food and water ad libitum.
Phorbol 12-myristate 13-acetate (PMA) was dissolved as 5 mg per mL stock in dimethyl sulfoxide (DMSO) and stored frozen as 20 microliter aliquots. For application to mouse ears, each aliquot was diluted in 2 mL with acetone.
The right ear of each mouse was treated topically with 20 microliters of acetone solution (10 microliters to each side of the ear) containing either 1 microgram of phorbol 12-myristate 13-acetate (PMA) or acetone alone.
Drugs that were tested orally were administered at −1 and +3 hours relative to PMA application.
Mice were sacrificed 24 h after PMA application. The right ear was punched with a 6 mm tissue punch and the tissue was placed in a tube on dry ice and kept frozen until extraction.
One tablet of phosphate citrate buffer was dissolved with urea hydrogen peroxide in 100 ml of water in which one tablet containing 60 mg of o-phenylenediaminedihydrochloride was added.
Ear tissue samples were homogenized in 2 ml of HTAB for 15 sec at speed 5.5 with a Polytron (large head) (Brinkman Instruments). The homogenate was stored at −20° C. until assayed. […]
Samples were typically tested at either a 1:2 or 1:4 dilution made with HTAB. […] Absorbance was read at 490 nm for the specific with subtraction of a 650 nm noise signal using a Thermomax 96-well spectrophotmetric plate reader (Molecular Devices). […]
The inhibition of PMA-induced ear edema was measured by eosinophil peroxidase levels in ear punches. […]
With `COc1cnn(C)c(=O)c1-c1ccc(C[C@H](NC(=O)c2c(Cl)cccc2Cl)C(=O)O)cc1` [Cpd 17], the “% Inh. of Eosinophil Peroxidase” value was 34.9%.
In the case of `COc1cnn(C)c(=O)c1-c1ccc(C[C@H](NC(=O)[C@@H]2C3CCC(CC3)N2C(=O)CCc2ccccc2)C(=O)O)cc1` [Cpd 89, 3-[4-(5-Methoxy-2-methyl-3-oxo-2,3-dihydro-pyridazin-4-yl)-phenyl]-2(S)-{[2-(3-phenyl-propionyl)-2-aza-bicyclo[2.2.2]octane-3(S)-carbonyl]-amino}-propionic acid], the “% Inh. of Eosinophil Peroxidase” value worked out at 43.5%.
In the case of `COC(=O)[C@H](Cc1ccc(-c2c(OC)cnn(C)c2=O)cc1)NC(=O)c1c(Cl)cccc1Cl` [Cpd 151], the “% Inh. of Eosinophil Peroxidase” value was determined as 26.5%.

The next assay has as its system alpha 4 beta 7-positive cells. Description: Intraperitoneal Delayed Type Hypersensitivity (IP-DTH) Response. The assay is classed as in vivo, mice. The conditions noted are these: 30 mg/kg po bid × 2; peritoneal cells 48 h after antigen challenge. From the text: Intraperitoneal Delayed Type Hypersensitivity (IP-DTH) Response. A Method for Analyzing Effects of Integrin Antagonists In Vivo
Integrin antagonists are meant to interfere with the binding or adhesion of immune cells, such as lymphocytes, monocytes and eosinophils that bear integrin receptors to counter-receptors that exist on endothelial cells in the vasculature. Among those integrin-bearing cells, cells that are positive for alpha 4 beta 7 integrin (found in the mesenteric system and in the gut), would comprise many of the cells recruited to a peritoneal antigen challenge. One can maximize the number of alpha 4 beta 7 integrin-positive cells recruited by inducing an intraperitoneal delayed type hypersensitivity response to antigen that will recruite antigen-responsive cells from the mesenteric lymph nodes. An inhibitor of alpha 4 beta 7 integrin should prevent the recruitment of these cells to the site of antigen challenge. Alpha 4 beta 7 integrin-positive cells are considered to be gut-homing, and are found in greater abundance in inflamed tissues of the GI tract and pancrea.
The antigenic challenge will induce a delayed type hypersensitivity response. In this model, animals were primed with antigen, then 7 days later were challenged intraperitoneally with the same antigen. During the ensuing 24-48 h, cells that were primed to recognize this antigen should be recruited to the challenge site. If the site is the peritoneal cavity, the recruited cells can be obtained by […] the cavity with a physiological buffer and collecting the lavage fluid.
The contribution of alpha 4 beta 7 integrin positive cells to the peritonal cavity cell population was ascertained by using flow cytometry to evaluate their relative percent in this population.
The mice were primed via intraperitoneal administration with 25 micrograms ovalbumin in a physiological buffer that may or may not contain alum as an adjuvant.
After 7 days, the mice were challenged with 25 micrograms ovalbumin via intraperitoneal administration.
Compounds were administered either orally (po), or subcutaneously (sc), either once daily or twice daily, for 2 days, starting on the day of antigen challenge.
Forty eight hours after antigen challenge, the elicited cells in the peritoneal cavity were harvested by lavaging the cavity in physiological saline or phosphate buffered saline, with calcium and magnesium salts.
The cells were washed into Staining Buffer consisting of phosphate buffered saline, 1% bovine serum albumin and 0.1% sodium azide, and resuspended to 2×10e7 cells/ml. A portion of 1×10e6 cells was deposited into a 96-well V-bottom plate for staining.
The sample of 1×10e6 cells was stained with fluorochrome-coupled antibody to alpha 4 beta 7 integrin or a primary antibody to alpha 4 beta 7 integrin followed by a secondary fluorochrome-coupled antibody. Each staining step was carried out at 4° C. for 30 to 45 min with gentle shaking, followed by 4 washes with Staining Buffer at 4° C. The cells were resuspended in 200 microliters of 1% paraformaldehyde in phosphate buffered saline. The cells were then transferred to test tubes and maintained at 4° C. until analyzed by flow cytometry to determine numbers of alpha4 beta7-postive cells.
A Becton-Dickenson FACSort (B-D instruments) was used for these studies.
Comparisons were made between numbers of alpha 4 beta 7-positive cells in samples taken from antigen-treated animals and numbers of alpha 4 beta 7-positive cells taken from antigen-treated animals administered experimental compounds.
In the case of `COc1cnn(CCO)c(=O)c1-c1ccc(C[C@H](NC(=O)c2c(Cl)cccc2Cl)C(=O)OCCO)cc1` [Cpd 199], the “% Decrease in recruited α4β7 + cells” value turned out to be 16.04%.

Still in this assay, the particulars now being: 30 mg/kg sc bid × 2; peritoneal cells 48 h after antigen challenge.
For the compound `CNc1cnn(CC(C)=O)c(=O)c1-c1ccc(C[C@H](NC(=O)c2c(Cl)cccc2Cl)C(=O)O)cc1` [Cpd 18], the “% Decrease in recruited α4β7 + cells” value was found to be 52.8%.

Staying with this assay, now noted: Mus musculus, po, 48 h, 30 mg/kg po bid × 2; peritoneal cells 48 h after antigen challenge; read-out: % Decrease in recruited α4β7 + cells.
With `COc1cnn(CCO)c(=O)c1-c1ccc(C[C@H](NC(=O)OC(C)(C)C)C(=O)O)cc1` [Cpd 120], the inhibition in vivo at 30 mg/kg came to 25.4%.
Turning to `COc1cnn(C)c(=O)c1-c1ccc(C[C@H](NC(=O)c2c(Cl)cccc2Cl)C(=O)OCC(C)(C)C)cc1` [Cpd 207], the inhibition in vivo at 30 mg/kg was found to be 25.6%.
Turning to `Cn1ncc(N)c(-c2ccc(C[C@H](NC(=O)c3c(Cl)cccc3Cl)C(=O)OCCO)cc2)c1=O` [Cpd 232], the inhibition in vivo at 30 mg/kg was 47.8%.

The same assay, now with this note: Mus musculus, sc, 48 h, 30 mg/kg sc bid × 2; peritoneal cells 48 h after antigen challenge; read-out: % Decrease in recruited α4β7 + cells.
As for `COc1cnn(CC(N)=O)c(=O)c1-c1ccc(C[C@H](NC(=O)c2c(Cl)cccc2Cl)C(=O)O)cc1` [Cpd 5], the inhibition in vivo at 30 mg/kg turned out to be 53.4%.
Consider `COc1cnn(CCN2CCOCC2)c(=O)c1-c1ccc(C[C@H](NC(=O)c2c(Cl)cccc2Cl)C(=O)O)cc1` [Cpd 10], for which the inhibition in vivo at 30 mg/kg came out at 56.3%.
`COc1cnn(CC(=O)O)c(=O)c1-c1ccc(C[C@H](NC(=O)c2c(Cl)cccc2Cl)C(=O)O)cc1` [Cpd 11]: the inhibition in vivo at 30 mg/kg stood at 70.5%.
For `COc1cnn(CCO)c(=O)c1-c1ccc(C[C@H](NC(=O)c2c(Cl)cccc2Cl)C(=O)O)cc1` [Cpd 15, (S)-2-(2,6-Dichloro-benzoylamino)-3{4-[2-(2-hydroxy-ethyl)-5-methoxy-3-oxo-2,3-dihydro-pyridazin-4-yl]-phenyl}-propionic acid], the inhibition in vivo at 30 mg/kg turned out to be 10.4%.
As to `O=C(N[C@@H](Cc1ccc(-c2c(OCc3cccnc3)cnn(CCO)c2=O)cc1)C(=O)O)c1c(Cl)cccc1Cl` [Cpd 30], the inhibition in vivo at 30 mg/kg was 37.4%.
On to `O=C(N[C@@H](Cc1ccc(-c2c(OCC3CC3)cnn(CCO)c2=O)cc1)C(=O)O)c1c(Cl)cccc1Cl` [Cpd 35], for which the inhibition in vivo at 30 mg/kg is 49.8%.
Regarding `Cn1ncc(N)c(-c2ccc(C[C@H](NC(=O)c3c(Cl)cccc3Cl)C(=O)O)cc2)c1=O` [Cpd 46], the inhibition in vivo at 30 mg/kg was found to be 56.6%.
Regarding `O=C(N[C@@H](Cc1ccc(-c2c(N3CCOCC3)cnn(CCO)c2=O)cc1)C(=O)O)c1c(Cl)cccc1Cl` [Cpd 61], the inhibition in vivo at 30 mg/kg is 37.4%.
